# Read-outs that look alike come from different tables or passages of the source.
# Assays:
# [1] = tested on: human peripheral blood neutrophils; assay: Cellular production of HOCl, PMA-activated peripheral blood neutrophils; type: cell-based; conditions: 20 μM compound, 100 nM PMA, 1 h
# Method: Human neutrophils were obtained from healthy individuals as previously described.[24] The experiments were approved by the local ethics committee (CEPSH-ICB 1435/18).
# (§1) Measurement of HOCl production by 1 × 10^6 dHL-60 or neutrophils was carried out in PBS (10 mM Na2HPO4, 2 mM KH2PO4, 0.5 mM MgCl2, 1 mM CaCl2, 140 mM NaCl, 5.5 mM dextrose, 100 μM diethylenetriaminepentaacetic acid, 5 mM taurine) in the presence of the compounds (20 μM in 0.3% DMSO) or 0.3% DMSO (control). Cells were activated with phorbol myristate acetate (100 nM) at 37 °C for 1 h. After incubation, cells were centrifuged at 1400 rpm for 10 min, and the supernatant was diluted threefold. Finally, 240 μL of this supernatant was added to 60 μL acetate buffer (400 mM, pH 5.4) containing NaI (100 μM) and TMB (2 mM in DMFO 10%). Taurine chloramine was quantified by TMB oxidation at 655 nm.[33] Inhibition of HOCl production was calculated as the percentage of the control (vehicle).
# [2] = tested on: IL-6; assay: Paw tissue IL-6 level after MSU (ELISA); type: in vivo, male C57BL/6 mice; conditions: intraperitoneal pretreatment (RL6 30 mg/kg), tissue collected at 6 h
# Method: (§2) The remaining part of the homogenate was treated with a solution of protease/phosphatase inhibitors (1 mM phenylmethylsulfonyl fluoride, 10 μg/mL leupeptin, and 10 μg/mL trypsin inhibitor) and centrifuged at 10,000g (10 min at 4 °C). The obtained supernatants were subjected to 1:2 dilution in PBS and subsequently used for the assessment of IL-1β and IL-6 using murine enzyme-linked immunosorbent assay kits, specifically a sandwich ELISA technique, following manufacturer’s instructions (BioLegend, CA, USA). The protein content within the samples was determined by using the Bradford method (1976). The results were quantified and expressed in pg/mg of protein (Bio-Rad, Hercules, CA, USA).[76]
# [3] = tested on: MSU-induced paw edema; assay: MSU-induced paw edema, oral treatment; type: in vivo, male C57BL/6 mice
# Method: Paw volume (mL) was measured at various time points, including before injection (baseline, B), […] 1, 2, 3, 4, 5, and 6 h following MSU injection using a plethysmometer (Ugo Basile, Comerio, Italy) (Figure 7). For this, the injected hind paw was immersed into the dipping solution (6 mM NaCl diluted in distilled water and added with 2 mL/L of a wetting compound provided by the manufacturer) until the ankle. The extent of edema was quantified as a change in paw volume (Δ mL) by subtracting the basal paw volume from the volume of the paw measured at each time point. To evaluate the antiedematogenic effect of orally administered MPO inhibitors (p.o.), the animals were fasted for 1 h and then treated with equimolar doses of the following substances: vehicle (VEH: 5% DMSO; 0.5% tween 80 in PBS), mefenamic acid (30 mg/kg), RL 6 (33 mg/kg), RL 7 (54 mg/kg), RL 21 (30 mg/kg), or ZINC9089086 (34 mg/kg). After 1 h, the anesthetized mice (2% isoflurane, v/v in O2) received either the vehicle (PBS, 30 μL, i.pl.) or 1.5 mg/30 μL MSU (i.pl.). The paw volume was evaluated at the same time points as previously described. The percentage of edema inhibition by the compounds was calculated discounting the paw volume of mice that received oral or intraperitoneal vehicle and PBS intraplantar (VEH + VEH).
# [4] = tested on: dHL-60 cells; assay: Cellular production of HOCl, PMA-activated dHL-60 cells; type: cell-based, human; conditions: 20 μM compound, 100 nM PMA, 1 h
# Method: Human promyelocytic leukemic cells (HL-60) (BCRJ, RJ, Brazil) were cultivated in RPMI with fetal bovine serum (10%), penicillin (62 μg/mL), and streptomycin (100 μg/mL) at 37 °C in 5% CO2 atmosphere. HL-60 cells were differentiated to neutrophil-like (dHL-60) by DMSO (1.25%) during 4 days.[25]
# as §1
# [5] = Taurine chloroamine scavenger assay; conditions: 15 min at 37 °C, TMB readout
# Method: Taurine chloramine was prepared by mixing hypochlorous acid (2.81 mM) with taurine (5 mM), cetyltrimethylammonium chloride (0.03%), NaCl (140 mM), and diethylenetriaminepentaacetic acid (100 μM) in phosphate buffer (20 mM, pH 7.4). The system was kept at 37 °C for 5 min for complete chloramine taurine formation. The compounds were added to this mixture and incubated for 15 min at 37 °C. Taurine chloramine was quantified by the oxidation of TMB (2 mM) catalyzed by iodide (100 μM).[33]
# [6] = biological target: Human leukocyte MPO (Homo sapiens, UniProt P05164); assay: MPO peroxidatic activity assay (AmplexRed oxidation); type: biochemical; parameters: Human leukocyte MPO (EC 1.7.1.11) was purchased from Planta Natural Products; purchased Planta Natural Products (Vienna, Austria); host or cells: human leukocytes
# Method: MPO peroxidase activity was kinetically monitored using the artificial peroxidase substrate AmplexRed, which is oxidized to resorufin and can be detected by fluorescence.[34] Reactions were carried out in phosphate buffer (50 mM, pH 7.4), MPO (100 pM), cetyltrimethylammonium chloride (0.03%), diethylenetriaminepentaacetic acid (100 μM), AmplexRed (30 μM), and compounds (20 μM in 0.3% DMSO). The reaction was started by adding 2 μM hydrogen peroxide. The reaction product was assessed by fluorescence at λex = 530 and λem = 580 nm. The initial velocity was calculated by the slope of the linear regression in the first minutes of reaction. Inhibition is represented as a percentage of the control (vehicle).
# [7] = tested on: IL-1β; assay: Paw tissue IL-1β level after MSU (ELISA); type: in vivo, male C57BL/6 mice; conditions: intraperitoneal pretreatment (RL6 30 mg/kg), tissue collected at 6 h
# Method: as §2
# Sequence of Human leukocyte MPO (P05164 279-745 limits assumed): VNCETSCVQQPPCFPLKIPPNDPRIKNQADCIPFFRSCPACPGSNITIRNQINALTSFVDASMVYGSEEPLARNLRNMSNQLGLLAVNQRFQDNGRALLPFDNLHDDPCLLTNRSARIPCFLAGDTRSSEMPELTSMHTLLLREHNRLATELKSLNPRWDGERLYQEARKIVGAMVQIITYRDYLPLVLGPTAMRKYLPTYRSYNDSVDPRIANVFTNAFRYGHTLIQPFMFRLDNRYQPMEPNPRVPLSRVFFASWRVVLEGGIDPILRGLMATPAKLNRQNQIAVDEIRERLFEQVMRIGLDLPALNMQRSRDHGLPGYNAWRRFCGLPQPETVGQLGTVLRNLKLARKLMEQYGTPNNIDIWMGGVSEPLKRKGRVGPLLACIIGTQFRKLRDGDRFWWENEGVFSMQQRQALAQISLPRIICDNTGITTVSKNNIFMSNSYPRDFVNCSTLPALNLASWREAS
# Sequence of Human leukocyte MPO (P05164 165-278 limits assumed): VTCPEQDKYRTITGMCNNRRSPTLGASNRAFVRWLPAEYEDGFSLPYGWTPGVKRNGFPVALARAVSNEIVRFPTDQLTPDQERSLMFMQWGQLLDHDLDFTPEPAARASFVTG
SMILES,inhibition of HOCl production in peripheral blood neutrophils [1],effect on IL-6 levels in hind paw tissue [2],inhibition of edema vs VEH + MSU ([3]; 33 mg/kg po) [%],inhibition of HOCl production in dHL-60 cells [4],scavenger activity toward taurine chloramine [5],"inhibition at 20 µM ([6]; 20 μM compound, 100 pM MPO, 30 μM AmplexRed, 2 μM H2O2, pH 7.4, read-out: % Inhibition (at 20 μM) Peroxidatic) [%]","inhibition at 20 µM ([6]; supplementary csv copy of Table 1, read-out: % Inhibition (Peroxidatic)) [%]",decrease in IL-1β levels in hind paw tissue [7],inhibition of edema vs VEH + MSU ([3]; 54 mg/kg po) [%],"% Inhibition (at 20 μM) Peroxidatic ([6]; 20 μM compound, 100 pM MPO, 30 μM AmplexRed, 2 μM H2O2, pH 7.4)",% Inhibition (Peroxidatic) ([6]; supplementary csv copy of Table 1)
Nc1cc2c3c(cccc3c1)C(=O)N(N)C2=O [RL6],significantly inhibited,no significant impact,57.0,significantly inhibited,did not scavenge taurine chloramine,73 ± 13.4,73 ± 13.4,48.3%,,,
CN1CCc2nc3sc(C(=O)Nc4cccc(C#N)c4)c(N)c3cc2C1 [RL7],significantly inhibited,unable to decrease,,significantly inhibited,did not scavenge the milder oxidant taurine chloroamine,,,unable to decrease,74.3,INACTIVE,INACTIVE

# — PMC11284790, “Targeting Myeloperoxidase Ameliorates Gouty Arthritis: A Virtual Screening Success Story” (Journal of Medicinal Chemistry, 2024)
